Measured values taken from patent publication US12268724B2, “Methods and compositions for the prevention or treatment of Barth Syndrome” (Stealth BioTherapeutics Inc., priority 2013, dated 2025).
Where no end group is shown, it is not given here. [ ]: non-standard residue; d: D form.

Key:
mitochondria = assay: Electron microscopy of mitochondrial ultrastructure and organization in tissue from cardiac disease subject; format: in vivo
Method: A tissue sample from a subject with Barth Syndrome and tissue samples from a subject with cardiac disease was prepared for electron microscopy imaging of the mitochondria using standards known in the art. […] FIG. 3.

TAZ1 = TAZ1 mRNA expression in a dog model of heart failure (real-time PCR of LV tissue); format: in vivo; settings: dogs with microembolization-induced heart failure, 0.5 mg/kg once daily subcutaneous, three months, saline control 2.25-fold
Method: Twelve dogs were subject to coronary microembolization-induced heart failure (LV ejection fraction ˜30%) as described above in Example 1. Subjects were randomized into D-Arg-2′6′-Dmt-Lys-Phe-NH2-treated and control groups for a three-month trial. Subjects received subcutaneous injections of D-Arg-2′6′-Dmt-Lys-Phe-NH2 (0.5 mg/kg once daily, n=6) or saline (Untreated-HF Control, n=6). RNA was prepared from LV tissue of all subjects at the end of the treatment phase and from the LV of six normal subject controls. Levels of TAZ1 mRNA were determined by real-time PCR. Changes in mRNA levels were expressed as fold reduction using the CT Method, with normalization to a […] (GAPDH) internal control.

mu-opioid receptor = mu-opioid receptor (Homo sapiens, UniProt P35372); assay: Mu-opioid receptor agonist activity; settings: stated in description, no test described
[1] = tested on: plasma membrane of several mammalian cell types; settings: cited from earlier work

mu-opioid receptor, sequence (P35372 whole entry, species assumed): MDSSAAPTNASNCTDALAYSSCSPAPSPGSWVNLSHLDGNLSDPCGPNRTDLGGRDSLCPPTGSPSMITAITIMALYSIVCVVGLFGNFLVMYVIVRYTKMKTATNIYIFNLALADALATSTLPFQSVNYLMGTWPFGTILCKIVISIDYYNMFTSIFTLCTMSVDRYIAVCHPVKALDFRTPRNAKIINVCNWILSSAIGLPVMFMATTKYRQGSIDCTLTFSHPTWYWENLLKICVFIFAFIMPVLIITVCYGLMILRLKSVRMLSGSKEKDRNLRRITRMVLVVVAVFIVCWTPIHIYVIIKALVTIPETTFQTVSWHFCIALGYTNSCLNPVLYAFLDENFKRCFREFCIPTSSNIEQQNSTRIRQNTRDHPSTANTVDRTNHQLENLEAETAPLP

Substance	ultrastructure of the mitochondria (electron microscopy) (mitochondria; cardiac disease subject treated with an effective amount, FIG. 4A vs 4B)	organization of the mitochondria (electron microscopy) (mitochondria; tissue from treated vs not treated cardiac disease subject, FIGS. 5A-5B)	decrease in TAZ1 mRNA relative to normal subjects (fold reduction, CT Method, normalized to GAPDH) (TAZ1)	mu-opioid receptor agonist activity (mu-opioid receptor)	penetration of the plasma membrane [1]
D-Arg-2′6′-Dmt-Lys-Phe-NH2	ameliorated the abnormal features of the ultrastructure of the mitochondria	improved organization of the mitochondria	1.23 fold	does not have mu-opioid receptor agonist activity	
F[dR]FK-NH2				does not have mu-opioid receptor agonist activity	
Tyr-D-Arg-Phe-Lys-NH2				has mu-opioid receptor agonist activity	
2′, 6′-Dmt-D-Arg-Phe-Lys-NH2					readily penetrates the plasma membrane of several mammalian cell types in an energy-independent manner
